This note sets out measurements from patent publication US6656710B2, “Process for the production of amino acids using racemase and acylase” (priority 2000, dated 2003).

SMILES strings stand for the structures.

Common to all, as to format: biochemical
Assay [1] deals with N-acetylamino acid racemase (AAR) from Amycolatopsis orientalis subsp. lurida. The assay is described as follows: Racemase activity assay of recombinant N-acetylamino acid racemase (polarimeter). Particulars: substrate 25 mM, Tris/HCl 50 mM pH 8.0, cobalt chloride 6 mM, ca. 150 μg AAR, 30° C., 3 to 12 hours, λ=365 nm. The protocol:
Detection of the racemase activity of a recombinant N-acetylamino acid racemase AAR enzyme The substrate spectrum of the N-acetylamino acid racemase (AAR) from Amycolatopsis orientalis subsp. lurida was tested with the enzyme assay described herein below. The composition of the assay was as follows: [table] Enantiomer-pure amino acid derivatives were used in the assay and the formation of the corresponding racemate was followed using a polarimeter (Perkin-Elmer 241). The incubation was carried out at 30° C. (heatable cell) for 3 to 12 hours. The measurements were made at a wavelength of λ=365 nm.

In assay [2] the test system is L-acylase from Aspergillus oryzae. The assay is described as follows: L-acylase activity assay, producing L-Met from Moc-L-Met. Particulars: Moc-L-Met 25 mM, Tris/HCl 50 mM pH 8.0, cobalt chloride 6 mM, L-Acylase 2.0 U, final volume 200 μL; L-Met detected by RP HPLC. From the text: Moc-L-Met was used in an assay to determine the activity of the L-acylase from Aspergillus oryzae. A. Producing L-Met from Moc-L-Met [table] D-Met and L-Met were detected by reverse phase HPLC (RP 18). The unit data for the enzymes refer to specific activity with N-Ac-L-Met and N-Ac-D-Met as substrate.

Assay [3] concerns D-acylase from Aspergillus oryzae in the presence of an N-acetylamino acid racemase (AAR) from Amycolatopsis orientalis subsp. lurida. The assay is described as follows: D-acylase activity assay in the presence of AAR, producing D-Met from Moc-L-Met. Particulars: Moc-L-Met 25 mM, Tris/HCl 50 mM pH 8.0, cobalt chloride 6 mM, D-Acylase 2.4 U, AAR 0.4 U, final volume 200 μL; D-Met detected by RP HPLC. From the text: B. Producing D-Met from Moc-L-Met Moc-L-Met was used in an assay to determine the activity of the D-acylase from Aspergillus oryzae in the presence of an N-acetylamino acid racemase (AAR) from Amycolatopsis orientalis subsp. lurida. [table] D-Met and L-Met were detected by reverse phase HPLC (RP 18). The unit data for the enzymes refer to specific activity with N-Ac-L-Met and N-Ac-D-Met as substrate.

Turning to `COC(=O)N[C@@H](CCSC)C(=O)O` [N-methyloxycarbonyl-L-Met], the “Specific Activity of the AAR” value in assay [1] is listed as 42 mU/mg. The Volume activity in assay [2] is on record as 1.4 U/ml; in assay [3] it was 0.6 U/ml.
